The values below come from US8664257B2, “Oxygen-substituted 3-heteroaroylamino-propionic acid derivatives and their use as pharmaceuticals” (Sanofi, priority 2010, dated 2014).

For this experiment, the target named is T1, Recombinant human cathepsin A (Homo sapiens, UniProt P10619).
T1 construct: Recombinant human cathepsin A (residues 29-480, with a C-terminal 10-His tag); 10-His (C); purchased R&D Systems 1049-SE
T1 sequence (P10619 29-312 limits assumed): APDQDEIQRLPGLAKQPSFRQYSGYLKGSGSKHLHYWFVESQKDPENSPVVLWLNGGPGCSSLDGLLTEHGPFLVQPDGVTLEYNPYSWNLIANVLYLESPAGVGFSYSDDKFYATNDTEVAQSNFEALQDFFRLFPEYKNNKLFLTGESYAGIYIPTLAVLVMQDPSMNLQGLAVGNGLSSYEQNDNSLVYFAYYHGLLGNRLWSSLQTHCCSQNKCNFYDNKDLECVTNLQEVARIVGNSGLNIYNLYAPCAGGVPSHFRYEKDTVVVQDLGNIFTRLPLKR
T1 sequence (P10619 327-480 limits assumed): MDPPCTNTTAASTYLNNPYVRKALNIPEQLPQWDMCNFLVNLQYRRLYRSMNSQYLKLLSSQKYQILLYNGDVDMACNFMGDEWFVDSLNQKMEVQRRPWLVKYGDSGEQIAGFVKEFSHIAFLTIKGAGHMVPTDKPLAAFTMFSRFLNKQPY
Nature of the experiment: Cathepsin A inhibitory activity. It counts as biochemical. The method, boiled down:
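Human cathepsin A (res. 29-480, C-His10) pre-activated with cathepsin L (MES pH 6.0, DTT, 15 min, 37 °C; quenched with 10 μM E-64). Enzyme (833 ng/ml) preincubated 15 min RT with compound in MES pH 5.5/DTT, then 2 μM Bodipy FL-bradykinin for 15 min RT. Capillary electrophoresis product/substrate peak areas; IC50 from % inhibition.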

[1] abbreviates: recombinant human cathepsin A, read-out: Activity (2): Cathepsin A inhibitory activity, IC50 class.

pIC50: −log10 of the molar value. Like-named read-outs stand apart in the source and are kept apart here.

A word on the pIC50: it is the IC50 on a negative log10 scale, so that one unit is a factor of ten. Consider `Cc1c(F)cccc1C(CC(=O)O)NC(=O)c1cc(O)n(-c2ccc(F)cc2)n1` (stereo not shown) [Example 523, 3-(3-Fluoro-2-methyl-phenyl)-3-{[1-(4-fluoro-phenyl)-5-hydroxy-1H-pyrazole-3-carbonyl]-amino}-propionic acid], for which, under setting [1], the pIC50 is 6.00 to 7.00.
Take `Cc1ccccc1[C@H](CC(=O)O)NC(=O)c1cc(O)n(-c2c(F)cccc2F)n1` [Example 588]: where the note is “read-out: Activity (2): Cathepsin A inhibitory activity (IC50 class)”, the pIC50 is 6.00 to 7.00.
Consider `CN(C)c1ccc(C(CC(=O)O)NC(=O)c2cc(O)n(-c3ccc(F)cc3F)n2)c(Cl)c1` (stereo not shown) [Example 448, 3-(2-Chloro-4-dimethylamino-phenyl)-3-{[1-(2,4-difluoro-phenyl)-5-hydroxy-1H-pyrazole-3-carbonyl]-amino}-propionic acid], for which the negative logarithm of the IC50 (pIC50) by setting is: (recombinant human cathepsin A 833 ng/ml, Bodipy FL-labeled bradykinin 2 μM, pH 5.5, read-out: CATH-A IC50) 6.05; under setting [1], 6.00 to 7.00.
